US6713268B2, “Methods of identifying ocular hypotensive compounds having reduced hyperpigmentation” (Allergan, Inc., priority 2001, dated 2004)
Entries after “also recorded” stand apart in the source; their conditions may differ. Like-named read-outs stand apart in the source and are kept apart here.

Assays:
S91 melanoma cells [1] = experiment: DOPA oxidase (tyrosinase) activity in S91 melanoma cells cultured alone; type: cell-based
Experimental: (§1) Human dermal fibroblasts and S91 melanoma cells are cultured in low-glucose Dulbecco's Modified Eagle Medium (DMEM) containing 10% fetal calf serum (FCS) supplemented with 2 mM L-glutamine, 100 mg/l sodium pyruvate, 100 U/ml penicillin G, 100 […] and 250 ng/ml amphotericin B at 37° C. with 5% CO2. For tyrosinase and melanogenesis assays, the FCS concentration is reduced to 1% during the incubation period.
(§2) S91 cells are plated at 10^5 cells/well in 6-well plates and allowed to attach overnight. For transwell studies, cells from a human dermal fibroblast cell line are plated on the transwell insert at 10^3 cells/well and allowed to attach overnight. Melanoma cells are plated in an initial excess over fibroblasts; preferably at a ratio between about 1:30 and about 1:1000, more preferably at a ratio between about 1:50 and about 1:300; most preferably at a ratio of about 1:100. For primary cells, cells are cultured at a ratio of fibroblasts to melanocytes of about 1:2 to about 1:50; preferably about 1:5 to about 1:20, even more preferably about 1:10. The added test agents generally stimulate fibroblast proliferation; thus the use of the transwell permits separate enumeration of the melanocytes.
(§3) Test agents are added every other day of the assay period, with no exchange of medium.
(§4) For DOPA oxidase (tyrosinase) activity, the cells were incubated for four days in this case and the S91 cells were collected in a lysis buffer. The cell suspension was subjected to one freeze/thaw cycle (−80° C.) and vortexed to extract the cytosolic cell contents. After centrifugation for 30 minutes at 16,000×g at 4° C., aliquots of the supernatant were used in a Bradford assay to determine protein concentration or incubated with d-DOPA or l-DOPA as substrates. The optical density was measured for up to 6 hours at 490 nm.
Cloudman S91 melanoma cells (ATCC CCL-53.1) were cultured either in the presence or absence of human dermal fibroblast cells (ATCC CRL-2097) as described above. […]

[2] = test system: S91 melanoma cells co-cultured with human dermal fibroblasts; experiment: DOPA oxidase (tyrosinase) activity in S91 melanoma cells in transwell co-culture with human dermal fibroblasts; type: cell-based; conditions: increasing concentrations 10^−9 to 10^−5 M, 4 days
Experimental: as §1, §2, §3, §4
Cloudman S91 melanoma cells (ATCC CCL-53.1) were cultured either in the presence or absence of human dermal fibroblast cells (ATCC CRL-2097) as described above. The added drugs were: arachidonic acid, anandamide, Compound C, Compound A, Compound D, Compound […], and Compound E.

FP receptor [3] = molecular target: T1, FP receptor (Homo sapiens, UniProt P43088); parameters: host or cells: S91 'Cloudman' melanoma cells, stably transfected; conditions: cited from earlier work
[4] = test system: S91 "Cloudman" melanoma cell line; conditions: cited from earlier work
S91 cells = conditions: native S91 cells; cited from earlier work
melanocytes = conditions: cited from earlier work
iris [5] = experiment: One year topical monkey study, darkening of the iris; conditions: once daily 35 microliter drop in one eye for one year; scale 0-3; untreated eyes baseline 1
Experimental: (§5) The other eye is left untreated. A total of 8 animals is treated within each treatment group. At the end of the one year study period darkening of the treated eye is compared to a photograph of the same eye prior to treatment, and scored using the following scale:

iris [6] = conditions: patients; cited from earlier work
S91 melanoma cells [7] = experiment: Cell proliferation assay of S91 melanoma cells; type: cell-based
Experimental: as §1, §2, §3
For the cell proliferation assay, melanoma cells were washed with Hanks BSS, trypsinized and counted with a hemacytometer.

FP receptor [8] = molecular target: T1, FP receptor; experiment: FLIPR calcium signaling in HEK-293 cells stably transfected with the human FP receptor; type: cell-based; parameters: expressed in transfected cells; host or cells: HEK-293; conditions: HEK-293 human FP; for concentration at which FP receptor stimulation plateaus / concentration at which the FP receptor is stimulated (calcium signal): FLIPR, Fluo-4; for concentration at which the FP receptor is stimulated (calcium signal): onset of effect; for stimulation of the human FP receptor: calcium signal, about 10^−11 to 10^−8 M
Experimental: Human embryonic kidney cells of line HEK-293 are stably transfected with an expression vector encoding the human FP receptor. Cells were cultured in low Glucose Dulbecco's Modified Eagles Medium containing 10% fetal calf serum, 2 mM L-glutamine, 100 mg/l sodium pyruvate, 100 U/ml penicillin G, […] streptomycin, 250 μg/ml G418 200 μg/ml hygromycin and 250 ng/ml amphotericin B at 37° C. with 5% CO2. Cells were seeded on poly-D-lysine-coated 96-well plates at 5000/well, and cultured overnight before the experiment. The cells are cultured in the presence, respectively, of: latanoprost-free acid, fluprostenol, Compound A, Compound B, and assayed using a FLIPR (fluorescence imaging plate reader) using the calcium activated fluorescent dye Fluo-4 as an indicator of free intracellular calcium. As stimulation of the FP receptor is known to cause in increase in free intracellular calcium release, this experiment is designed to determine when the test compounds are capable of stimulating the human FP receptor.

S91 melanoma cells [9] = experiment: Melanin assay in S91 cells; type: cell-based; conditions: S91 cells not in transwell cultures
Experimental: as §1
as §2, with “The added test agents generally stimulate fibroblast proliferation; thus the use of the transwell permits separate enumeration of the melanocytes.” left out
For the melanin assay, cells were incubated for 5 days. […] After centrifugation for 30 min at 16,000×g at room temperature, the optical density of the supernatant was measured at 475 nm and compared to a standard curve obtained with synthetic melanin.

iris [10] = conditions: monkey, in vivo
Experimental: as §5

T1 sequence (P43088 whole entry): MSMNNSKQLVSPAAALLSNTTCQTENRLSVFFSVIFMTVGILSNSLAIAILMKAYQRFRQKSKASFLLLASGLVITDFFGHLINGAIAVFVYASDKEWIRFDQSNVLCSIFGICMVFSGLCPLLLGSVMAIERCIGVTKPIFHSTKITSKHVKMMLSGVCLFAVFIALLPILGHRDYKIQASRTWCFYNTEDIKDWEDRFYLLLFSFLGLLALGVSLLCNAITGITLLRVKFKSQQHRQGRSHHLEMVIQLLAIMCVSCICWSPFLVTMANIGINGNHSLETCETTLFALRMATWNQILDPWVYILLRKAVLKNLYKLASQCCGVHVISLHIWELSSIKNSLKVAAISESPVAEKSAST

CCCCC/C=C\C/C=C\C/C=C\C/C=C\CCCC(=O)O [arachidonic acid]
tyrosinase (DOPA oxidase) activity (S91 melanoma cells [1]; S91 without fibroblasts, increasing concentrations 10^−9 to 10^−5 M, 4 days): smaller increase | tyrosinase (DOPA oxidase) activity [2]: significant increase

CCCCC/C=C\C/C=C\C/C=C\C/C=C\CCCC(=O)NCCO [anandamide]
tyrosinase (DOPA oxidase) activity [2]: no significant increase

CCCCC[C@H](O)/C=C/[C@@H]1[C@@H](C/C=C\CCCC(=O)O)[C@@H](O)C[C@H]1O [PGF2α]
DOPA oxidase (tyrosinase) activity and melanin formation compared with native S91 cells (FP receptor [3]; FP receptor transfectants): indistinguishable | calcium signal (FP receptor [3]; FP receptor transfected S91 cells): did not generate a calcium signal | melanogenesis / melanin production [4]: only at quite high concentrations | calcium signal (S91 cells): failed to stimulate a calcium signal

melanocyte-stimulating hormone [MSH]
melanogenesis / melanin production [4]: able to simulate melanogenesis | activity of tyrosinase (melanocytes): appears to stimulate | expression or activity of TRP2 and TRP1 (melanocytes): does not increase

CC(C)OC(=O)CCC/C=C\C[C@@H]1[C@@H](CC[C@@H](O)CCc2ccccc2)[C@H](O)C[C@@H]1O [latanoprost]
darkening of the treated eye (iris), score (iris [5]): 2 | human eyes with increase in brown pigment in the iris (iris [6]): 5-15% | tyrosinase activity (S91 melanoma cells [1]; S91 cells not in transwell cultures, 10^−5 M): enhancement | DOPA oxidase activity (S91 melanoma cells [1]; S91 cells not in transwell cultures, up to 10^−6 M): no appreciable change | S91 cell proliferation (S91 melanoma cells [7]; 10^−5 M, with or without fibroblasts): decrease | S91 cell proliferation (S91 melanoma cells [7]; 10^−9 to 10^−6 M, with or without fibroblasts): little effect | concentration at which FP receptor stimulation plateaus (FP receptor [8]): about 10^−8 M | concentration at which the FP receptor is stimulated (calcium signal) (FP receptor [8]): about 10^−11 M | stimulation of the human FP receptor (FP receptor [8]): stimulate | tyrosinase (DOPA oxidase) activity [2]: stimulate increased production of tyrosinase; also recorded: dose-dependent effect | melanin formation (S91 melanoma cells [9]; 10^−5 M): enhancement | melanin formation (S91 melanoma cells [9]; up to 10^−6 M): no appreciable change

O=C(O)CCC/C=C\C[C@@H]1[C@@H](/C=C/[C@@H](O)COc2cccc(C(F)(F)F)c2)[C@H](O)C[C@@H]1O (racemic) [fluprostenol]
S91 cell proliferation (S91 melanoma cells [7]; 10^−9 to 10^−5 M, with or without fibroblast co-cultures): No effect | concentration at which FP receptor stimulation plateaus (FP receptor [8]): about 10^−8 M | concentration at which the FP receptor is stimulated (calcium signal) (FP receptor [8]): about 10^−11 M | stimulation of the human FP receptor (FP receptor [8]): stimulate | tyrosinase (DOPA oxidase) activity [2]: stimulate increased production of tyrosinase; also recorded: dose-dependent effect

CCNC(=O)CCC/C=C\C[C@@H]1[C@@H](/C=C/[C@@H](O)CCc2ccccc2)[C@H](O)C[C@@H]1O [Compound A]
darkening of the treated eye (iris), score (iris [10]): about 1.1 | tyrosinase (DOPA oxidase) activity [2]: no significant changes
